Here are results for one compound from patent US20250360111A1, “COMPOSITIONS OF AGPAT4 INHIBITORS AND METHODS OF USING THEREOF TO TREAT CANCER” (The University of Hong Kong, priority 2024, published 2025).

Where a chain is given by its changes, count along the chain named. pIC50: −log10 of the molar value.

The target of assay [1] is T1, Purified human AGPAT4 protein (Homo sapiens, UniProt Q9NRZ5).
T1 construct: The open reading frame (ORF) encoding the mRNA of AGPAT4 was cloned into pGEX-4T1; made in house; host or cells: Escherichia coli BL21
T1 sequence (Q9NRZ5 1-378): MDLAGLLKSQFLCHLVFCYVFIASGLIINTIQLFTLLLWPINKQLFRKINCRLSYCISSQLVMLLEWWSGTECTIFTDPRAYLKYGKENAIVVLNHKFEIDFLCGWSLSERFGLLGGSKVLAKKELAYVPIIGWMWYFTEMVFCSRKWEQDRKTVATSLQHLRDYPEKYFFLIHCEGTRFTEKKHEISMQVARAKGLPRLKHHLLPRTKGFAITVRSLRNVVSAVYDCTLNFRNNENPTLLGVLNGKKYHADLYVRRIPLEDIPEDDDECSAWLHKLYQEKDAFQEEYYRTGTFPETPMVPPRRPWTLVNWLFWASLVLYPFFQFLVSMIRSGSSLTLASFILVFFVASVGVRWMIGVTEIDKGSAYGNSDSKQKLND
Kind of assay: In vitro binding to AGPAT4 by gel-based ABPP (competition with IA-rhodamine). The conditions noted are these: loss of IA-rhodamine fluorescence. On the procedure:
Purified human AGPAT4 protein (0.1 μg) was incubated with library compounds at 25 μM (unless indicated) for 1 h at room temperature, followed by incubation with IA-rhodamine (1 μM) for 1 h. Sampling buffer was added and the samples were denatured by boiling at 90° C. The samples were resolved by SDS-PAG E and fluorescence signals were captured using ChemiDoc MP (Bio-Rad) before silver staining to assess protein loading. The band fluorescence intensity was quantified using the ImageJ software.

Assay [2] has as its target T2, acyltransferase activity of AGPAT4 (Homo sapiens, UniProt Q9NRZ5).
T2 construct: The open reading frame (ORF) encoding the mRNA of AGPAT4 was cloned into the pDONR-221 donor vector; expressed in transfected cells; host or cells: Huh7 (lentiviral pEZ-Lv199-AGPAT4); also sorafenib-resistant HepG2 (endogenous AGPAT4)
T2 sequence (Q9NRZ5 1-378): T1 sequence (Q9NRZ5 1-378)
Description: LPA to PA conversion assay. Type of assay: biochemical. On the procedure:
(§1) Enzyme activity was measured by quantifying the conversion of [3H]-LPA to [3H]-PA following the protocol outlined in a previous study (43). Briefly, the enzymatic reaction was prepared by combining 10 μmol/L 18:1 Lyso PA (Avanti Polar Lipids), 50 μmol/L oleoyl CoA (Sigma-Aldrich), 1 μL 1-oleoyl-[oleoyl-9,10^−3H]-LPA (specific activity 30-60 Ci/mmol; PerkinElmer), and 1 mg/mL fatty acid-free BSA in 200 μL 100 mM Tris-HCl buffer at pH 7.4. The reaction was initiated by adding 30 μg of total protein (cell lysate) and incubating the mixture at 37° C. for 10 min. To stop the reaction, 0.5 mL of 1-butanol containing 1 M HCl was added to extract phospholipids to stop the reaction. The butanol extract was then dried under vacuum, and the LPA and PA were separated using a solvent system consisting of chloroform, methanol, acetic acid, and water (25:10:3:1). Radioactive spots were identified by comparing their migration with unlabelled LPA and PA standards and visualized using iodine vapours. The spots corresponding to [3H]-LPA and [3H]-PA were scraped and their radioactivity was measured using a Tri-Carb Liquid Scintillation Counter 4810 (PerkinElmer Life Sciences).

Assay [3] concerns the target T3, acyltransferase activity of AGPAT4 (Homo sapiens, UniProt Q9NRZ5, C228A).
T3 construct: The open reading frame (ORF) encoding the mRNA of AGPAT4 was cloned into the pDONR-221 donor vector; expressed in transfected cells; host or cells: Huh7 (lentiviral pEZ-Lv199-AGPAT4)
T3 sequence (Q9NRZ5 1-378 C228A): T1 sequence (Q9NRZ5 1-378) with C228A
Description: LPA to PA conversion assay. The conditions noted are these: Huh7 cells, AGPAT4 C228A mutant. Type of assay: biochemical. On the procedure: as §1

A word on the pIC50: it is the IC50 on a negative log10 scale, so that one unit is a factor of ten. Read a high pIC50 as a low IC50. `O=C(CCl)NCc1ccc(-c2nc3ccccc3s2)o1` [CL26, N-[[5-(2-benzothiazolyl)-2-furanyl]methyl]-2-chloroacetamide]: in assay [1], the pIC50 was 6.12. For the same compound, the “inhibition of acyltransferase activity (LPA to PA conversion)” value in assay [2] (Huh7 cells overexpressing AGPAT4 and sorafenib-resistant HepG2 cells) is on record as “inhibition of acyltransferase activity of AGPAT4 in vitro was verified”. In addition, the “inhibition of acyltransferase activity (PA conversion assay) in tumors” value in assay [2] (sorafenib-resistant HCC PDX model #2) is recorded as “inhibitory effect of CL26 on acyltransferase activity in sorafenib-resistant PDX was confirmed”. Further, the “LPA to PA conversion vs DMSO control” value in assay [3] is reported as “did not show difference in LPA to PA conversion”.
